Measurements reported in article PMC12148480 (The Journal of Biological Chemistry, 2025).
“Also recorded” adds a separate entry of the source.

Experiments:
[1] = biological target: T1, rat brain cortical homogenates (Rattus norvegicus, UniProt P11275); experiment: [3H]NCS-382 binding to rat brain cortical homogenates
T1 construct: from tissue; host or cells: rat brain cortical homogenate

[2] = biological target: native CaMKIIα (rat cortical homogenate) (Rattus norvegicus, UniProt P11275); experiment: Competitive inhibition of [3H]O-5-HDC binding, rat cortical homogenate; design: native CaMKIIα (rat cortical homogenate); from tissue; host or cells: rat cerebral cortex homogenate
Sequence of native CaMKIIα (rat cortical homogenate) (P11275 whole entry): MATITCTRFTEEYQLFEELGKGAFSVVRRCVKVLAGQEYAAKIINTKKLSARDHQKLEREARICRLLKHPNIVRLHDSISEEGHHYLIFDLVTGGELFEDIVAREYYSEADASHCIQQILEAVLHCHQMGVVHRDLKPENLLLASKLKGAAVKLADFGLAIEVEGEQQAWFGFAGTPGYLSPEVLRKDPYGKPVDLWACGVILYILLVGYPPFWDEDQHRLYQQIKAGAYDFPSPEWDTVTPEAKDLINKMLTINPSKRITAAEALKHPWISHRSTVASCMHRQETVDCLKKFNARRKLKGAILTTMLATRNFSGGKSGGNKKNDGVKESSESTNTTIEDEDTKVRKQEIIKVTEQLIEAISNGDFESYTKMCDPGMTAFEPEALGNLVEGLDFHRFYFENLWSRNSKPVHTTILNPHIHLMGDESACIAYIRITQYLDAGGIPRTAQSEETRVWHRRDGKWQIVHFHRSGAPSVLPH
Description: Ki values were obtained from the One Site-Fit Ki model utilizing the following Cheng-Prusoff equation: […]
Where [RL] represents the specific radioligand concentration from each experiment and KD is the dissociation constant of [^3H]O-5-HDC acquired from saturation curves.

CaMKIIβ L467W/C533R [3] = biological target: T2, CaMKIIβ L467W/C533R (Rattus norvegicus, UniProt P08413, C533R/L467W); experiment: Displacement of [3H]O-5-HDC binding in CaMKIIβ L467W/C533R HEK293T homogenate
T2 construct: host or cells: HEK293T whole-cell homogenate
T2 sequence (P08413 whole entry L467W/C533R): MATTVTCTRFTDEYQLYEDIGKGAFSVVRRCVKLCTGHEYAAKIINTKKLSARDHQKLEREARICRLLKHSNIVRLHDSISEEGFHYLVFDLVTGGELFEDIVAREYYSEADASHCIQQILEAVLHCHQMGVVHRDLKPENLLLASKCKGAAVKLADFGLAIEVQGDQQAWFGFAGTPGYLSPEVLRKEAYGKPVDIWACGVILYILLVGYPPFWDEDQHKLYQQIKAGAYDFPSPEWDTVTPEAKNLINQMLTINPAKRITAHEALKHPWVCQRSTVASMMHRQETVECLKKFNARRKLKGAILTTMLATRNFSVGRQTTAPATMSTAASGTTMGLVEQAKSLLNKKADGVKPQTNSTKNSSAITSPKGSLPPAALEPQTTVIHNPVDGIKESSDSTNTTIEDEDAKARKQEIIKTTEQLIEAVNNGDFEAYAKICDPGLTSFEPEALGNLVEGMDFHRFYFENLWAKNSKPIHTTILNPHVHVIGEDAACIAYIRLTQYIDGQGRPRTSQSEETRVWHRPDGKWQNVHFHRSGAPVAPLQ
Description: (§1) Recombinant HEK293T whole-cell homogenate equilibrium binding experiments were performed similar to that described previously ([14]), using a 48-well assay format. […] The binding reaction was terminated by precipitation with ice-cold acetone (1 h at −20 °C), and radioligand-bound protein was separated from free radioligand by vacuum-filtration through glass fibre (GF/C) filters. Counts (disintegrations per minute [DPM]) were detected by liquid scintillation counting ([14]). Counts for CaMKIIα WT typically ranged from 2000 to 6000 DPM with [^3H]HOCPCA and 1800 to 5000 DPM with [^3H]O-5-HDC, slightly lower for the CaMKIIβ […] mutant. All experiments were performed in technical triplicates using at least three different batches of HEK293T cell homogenates.
(§2) Data analysis: The specific binding was determined as Total binding subtracted NSB. For the pooling of data from recombinant binding, the specific binding of the variant was normalized to the specific binding of CaMKIIα WT within each experiment.
Specific binding (% of control)=Top-Bottom1+10(log(IC50-[compound]))
where top and bottom represent the upper and lower plateaus of the curve, respectively.

CaMKIIα [4] = settings: cited from earlier work
ischemia = settings: several mouse models of ischemia; cited from earlier work
[5] = cited from earlier work
CaMKIIα-WT hub protein = biological target: CaMKIIα-WT hub protein; design: method as in PMID 39275999; settings: SPR, purified CaMKIIα-WT hub; cited from earlier work
[6] = biological target: CaMKIIα-W403L hub protein; design: method as in PMID 39275999; settings: SPR, purified CaMKIIα-W403L hub; cited from earlier work
[7] = biological target: CaMKIIα (rat cortical homogenate); settings: inhibition of [3H]HOCPCA binding, ref 1 (Leurs et al., PNAS 2021); read-out: Comparative Ki, [3H]HOCPCA binding; cited from earlier work
CaMKIIα [8] = settings: CaMKIIα binding assays previously reported; cited from earlier work
CaMKIIβ L467W/C533R [9] = biological target: T2, CaMKIIβ L467W/C533R; experiment: [3H]HOCPCA binding, HEK293T whole-cell homogenate, CaMKIIβ L467W/C533R
Description: as §1, §2

CaMKIIβ C533R = biological target: T3, CaMKIIβ C533R (Rattus norvegicus, UniProt P08413, C533R); experiment: [3H]HOCPCA binding, HEK293T whole-cell homogenate, CaMKIIβ C533R
T3 construct: host or cells: HEK293T whole-cell homogenate
T3 sequence (P08413 whole entry C533R): as the sequence (P08413 whole entry L467W/C533R) above, with W467L counted along it
Description: as §1, §2

CaMKIIα H395A = biological target: T4, CaMKIIα H395A (Rattus norvegicus, UniProt P11275, H395A); experiment: [3H]HOCPCA binding, HEK293T whole-cell homogenate, CaMKIIα H395A; settings: normalized to CaMKIIα WT
T4 construct: host or cells: HEK293T whole-cell homogenate
T4 sequence (P11275 whole entry H395A): as the sequence (P11275 whole entry) above, with H395A counted along it
Description: as §1, §2

CaMKIIβ WT = biological target: T5, CaMKIIβ WT (Rattus norvegicus, UniProt P08413); experiment: [3H]HOCPCA binding, HEK293T whole-cell homogenate, CaMKIIβ WT
T5 construct: host or cells: HEK293T whole-cell homogenate
T5 sequence (P08413 whole entry): as the sequence (P08413 whole entry L467W/C533R) above, with W467L, R533C counted along it
Description: as §1, §2

[10] = tested on: CaMKIIα (rat cortical homogenate); design: method as in earlier work; settings: comparative value, [3H]HOCPCA binding, ref 1 (Leurs et al., PNAS 2021); cited from earlier work
CaMKIIγ C518R = biological target: T6, CaMKIIγ C518R (Rattus norvegicus, UniProt P11730, C518R); experiment: [3H]HOCPCA binding, HEK293T whole-cell homogenate, CaMKIIγ C518R
T6 construct: host or cells: HEK293T whole-cell homogenate
T6 sequence (P11730 whole entry C518R): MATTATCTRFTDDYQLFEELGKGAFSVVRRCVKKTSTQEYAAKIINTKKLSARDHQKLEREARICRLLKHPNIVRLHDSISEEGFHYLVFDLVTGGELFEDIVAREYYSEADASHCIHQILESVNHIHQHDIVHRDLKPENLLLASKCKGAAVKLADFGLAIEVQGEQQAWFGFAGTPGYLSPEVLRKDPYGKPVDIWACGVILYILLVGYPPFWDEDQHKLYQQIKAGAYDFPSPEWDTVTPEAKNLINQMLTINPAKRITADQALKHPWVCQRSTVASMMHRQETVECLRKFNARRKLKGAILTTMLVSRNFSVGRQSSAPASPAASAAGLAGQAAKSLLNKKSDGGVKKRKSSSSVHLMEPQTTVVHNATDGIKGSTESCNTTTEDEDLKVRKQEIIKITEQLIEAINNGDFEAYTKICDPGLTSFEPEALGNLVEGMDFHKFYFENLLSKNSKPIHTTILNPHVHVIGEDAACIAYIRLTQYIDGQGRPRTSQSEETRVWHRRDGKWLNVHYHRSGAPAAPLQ
Description: as §1, §2

CaMKIIα R453Q = biological target: T7, CaMKIIα R453Q (Rattus norvegicus, UniProt P11275, R453Q); experiment: [3H]HOCPCA binding, HEK293T whole-cell homogenate, CaMKIIα R453Q; settings: normalized to CaMKIIα WT
T7 construct: host or cells: HEK293T whole-cell homogenate
T7 sequence (P11275 whole entry R453Q): as the sequence (P11275 whole entry) above, with R453Q counted along it
Description: as §1, §2

[11] = biological target: T8, CaMKIIα R433Q/R453Q/R469Q (Rattus norvegicus, UniProt P11275, R433Q/R453Q/R469Q); experiment: [3H]HOCPCA binding, HEK293T whole-cell homogenate, CaMKIIα triple mutant; settings: CaMKIIα triple mutant RRR433/453/469QQQ
T8 construct: host or cells: HEK293T whole-cell homogenate
T8 sequence (P11275 whole entry R433Q/R453Q/R469Q): as the sequence (P11275 whole entry) above, with R433Q, R453Q, R469Q counted along it
Description: as §1, §2

CaMKIIα R469Q = biological target: T9, CaMKIIα R469Q (Rattus norvegicus, UniProt P11275, R469Q); experiment: [3H]HOCPCA binding, HEK293T whole-cell homogenate, CaMKIIα R469Q; settings: 40 nM radioligand
T9 construct: host or cells: HEK293T whole-cell homogenate
T9 sequence (P11275 whole entry R469Q): as the sequence (P11275 whole entry) above, with R469Q counted along it
Description: as §1, §2

CaMKIIα R433Q = biological target: T10, CaMKIIα R433Q (Rattus norvegicus, UniProt P11275, R433Q); experiment: [3H]HOCPCA binding, HEK293T whole-cell homogenate, CaMKIIα R433Q; settings: 40 nM radioligand
T10 construct: host or cells: HEK293T whole-cell homogenate
T10 sequence (P11275 whole entry R433Q): as the sequence (P11275 whole entry) above, with R433Q counted along it
Description: as §1, §2

CaMKIIβ L467W = biological target: T11, CaMKIIβ L467W (Rattus norvegicus, UniProt P08413, L467W); experiment: [3H]HOCPCA binding, HEK293T whole-cell homogenate, CaMKIIβ L467W
T11 construct: host or cells: HEK293T whole-cell homogenate
T11 sequence (P08413 whole entry L467W): as the sequence (P08413 whole entry L467W/C533R) above, with R533C counted along it
Description: as §1, §2

CaMKIIα W403L = biological target: T12, CaMKIIα W403L (Rattus norvegicus, UniProt P11275, W403L); experiment: [3H]HOCPCA binding, HEK293T whole-cell homogenate, CaMKIIα W403L; settings: p = 0.0038
T12 construct: host or cells: HEK293T whole-cell homogenate
T12 sequence (P11275 whole entry W403L): as the sequence (P11275 whole entry) above, with W403L counted along it
Description: as §1, §2

T1 sequence (P11275 whole entry): as the sequence (P11275 whole entry) above

## O=C(O)Cc1c(Oc2ccccc2Cl)cc(I)c(O)c1I [compound 2]
[1]
  affinity: mid-micromolar
  change in affinity in comparison to O-5-HDC: 100 X

## O=C(O)CCCO [GHB, γ-hydroxybutyric acid]
[2]; rat cortical homogenate
  lower affinity in displacing [3H]O-5-HDC than [3H]HOCPCA: 10 fold
CaMKIIβ L467W/C533R [3]; IC50, displacement of [3H]O-5-HDC
  IC50: 710 µM
CaMKIIβ L467W/C533R [3]; pIC50 (value in parentheses after IC50), displacement of [3H]O-5-HDC
  IC50: 676 µM
CaMKIIα [4]
  effect on CaMKIIα activity (syntide-2 phosphorylation): not to affect CaMKIIα activity
ischemia
  neuroprotection: neuroprotective

## O=C(O)Cc1cc(O)ccc1Nc1c(Cl)cccc1Cl [5-HDC, 5-hydroxydiclofenac]
[5]
  chemical stability: chemically unstable

## O=C(O)Cc1cn2nc(-c3ccc(Cl)cc3)ccc2n1 [PIPA]
CaMKIIα-WT hub protein
  Kd: 1400 nM
[6]
  Kd: 2800 nM

## O=C(O)Cc1cc(O)c(I)cc1Oc1ccccc1Cl [compound 1]
[1]
  affinity: mid-micromolar
  change in affinity in comparison to O-5-HDC: 100 X

## O=C(O)C1=CC(O)CC1 (stereo not drawn) [HOCPCA, 3-hydroxycyclopent-1-enecarboxylic acid]
[2]; Ki
  Ki: 1270 nM
[2]; pKi ± S.E.M., inhibition of [3H]O-5-HDC binding, rat cortical homogenate, n = 4
  Ki: 1170 nM
[2]; rat cortical homogenate
  lower affinity in displacing [3H]O-5-HDC than [3H]HOCPCA: 10 fold
CaMKIIα [4]
  effect on CaMKIIα activity (syntide-2 phosphorylation): not to affect CaMKIIα activity
ischemia
  neuroprotection: neuroprotective
[7]
  Ki: 130 nM

## O=C(O)Cc1cc(O)ccc1Oc1ccccc1Cl
CaMKIIα [8]
  Ki: 27 nM

## [3H]C1(O)C=C(C(=O)O)CC1 (stereo not drawn) [[^3H]HOCPCA]
CaMKIIβ L467W/C533R [9]
  specific [3H]HOCPCA binding: no detected specific [^3H]HOCPCA binding; also recorded: Neither of these led to any noticeable radioligand binding
CaMKIIβ C533R
  specific [3H]HOCPCA binding: no specific binding
CaMKIIα H395A
  specific [3H]HOCPCA binding remaining: 7–9%
CaMKIIβ WT
  specific [3H]HOCPCA binding: no detected specific [^3H]HOCPCA binding
[10]
  Bmax: 43 pmol/mg protein
  Kd: 260 nM
  pKd ± SEM: 6.6 ± 0.06
CaMKIIγ C518R
  specific [3H]HOCPCA binding: no specific binding
CaMKIIα R453Q
  specific [3H]HOCPCA binding remaining: 7–9%
[11]
  specific [3H]HOCPCA binding: completely binding-deficient
CaMKIIα R469Q
  specific [3H]HOCPCA binding: completely abolished
CaMKIIα R433Q
  specific [3H]HOCPCA binding: completely abolished
CaMKIIβ L467W
  specific [3H]HOCPCA binding: no detected specific [^3H]HOCPCA binding; also recorded: Neither of these led to any noticeable radioligand binding
CaMKIIα W403L
  specific [3H]HOCPCA binding: 70 % of WT
